≈ marks a conversion by molar mass, not a printed value.
Experiment: Solubility test of Gatifloxacin (Test Example 1)
Assay type: physicochemical
Conditions: for solubility thermodynamic at 3 h: pH 6.5, aqueous buffer, thermodynamic from solid, pH 6.5, stirred 3 hours at room temperature
Method: According to the formulations shown in Table 1, a saturated solution of Gatifloxacin containing the given amount of each additive was prepared. The solution containing sodium dihydrogen phosphate, boric acid or malonic acid was adjusted to a pH of 6.5 with hydrochloric acid and sodium hydroxide, and then stirred for 3 hours at room temperature. The solution containing nicotinamide was adjusted to 6.0 with hydrochloric acid and sodium hydroxide, filled in glass ampoules and shaken for 2 days at room temperature. As a control, a saturated solution of Gatifloxacin containing no additive was prepared, its pH was adjusted to 6.5 with hydrochloric acid and sodium hydroxide, and stirred for 3 hours at room temperature. Each solution was filtered through a membrane filter (0.45 μm), and the filtrate (1 mL) was precisely measured and a diluent was added thereto to precisely make its volume up to 50 mL. The resultant solution (3 mL) was precisely measured, an internal standard solution (3 mL) was precisely added thereto, and a diluent was added thereto to precisely make its volume up to 20 mL to prepare a sample solution. The concentration of Gatifloxacin was measured in the sample solution (20 μL) under the following HPLC conditions. The solubility was converted in terms of Gatifloxacin 3/2 hydrate.
Detector: Ultraviolet absorptiometer (measurement wavelength: 280 nm) Column: Inertsil ODS-2 […], 4.6 mmφ×150 mm, GL Sciences Inc. Column temperature: 40° C. Mobile phase: acetonitrile (180 mL), water (810 mL) and triethylamine (10 mL) were mixed, and the pH was adjusted to 4.5 with phosphoric acid. Flow rate: 0.8 mL/min Injection amount: 20 μL Internal standard solution: a mobile phase solution of methyl p-aminobenzoate (1→10000) Diluent: Mixture of acetonitrile, water and phosphoric acid (200:800:0.8)

Solubility of Gatifloxacin (nicotinamide 1 w/v %, pH 6.0, shaken 2 days at room temperature, in terms of 3/2 hydrate): 1.41 w/v % | solubility thermodynamic at 3 h (sodium dihydrogen phosphate dihydrate 0.5 w/v %, in terms of 3/2 hydrate): 7200 µg/mL (≈ 19.2 mM) | solubility thermodynamic at 3 h (sodium dihydrogen phosphate dihydrate 1 w/v %, in terms of 3/2 hydrate): 9100 µg/mL (≈ 24.2 mM) | solubility thermodynamic at 3 h (saturated solution containing boric acid 0.5 w/v %, boric acid 0.5 w/v %, in terms of 3/2 hydrate): 5800 µg/mL (≈ 15.5 mM) | solubility thermodynamic at 3 h (saturated solution containing boric acid 1 w/v %, boric acid 1 w/v %, in terms of 3/2 hydrate): ~6000 µg/mL (≈ 16 mM) | solubility thermodynamic at 3 h (saturated solution containing malonic acid 0.5 w/v %, malonic acid 0.5 w/v %, in terms of 3/2 hydrate): 9600 µg/mL (≈ 25.6 mM) | solubility thermodynamic at 3 h (saturated solution containing malonic acid 1 w/v %, malonic acid 1 w/v %, in terms of 3/2 hydrate): 9300 µg/mL (≈ 24.8 mM) | solubility thermodynamic at 3 h (saturated solution containing no additive (control), no additive (control), in terms of Gatifloxacin 3/2 hydrate): 5300 µg/mL (≈ 14.1 mM)
Compound: COc1c(N2CCNC(C)C2)c(F)cc2c(=O)c(C(=O)O)cn(C3CC3)c12 (racemic) [Gatifloxacin, (±)-1-cyclopropyl-6-fluoro-1,4-dihydro-8-methoxy-7-(3-methyl-1-piperazinyl)-4-oxo-3-quinolinecarboxylic acid]
